{"source": "patent US10966430B2", "about": "“Natural fungicide composition” (GRIFFITH FOODS INTERNATIONAL INC., priority 2013, dated 2021)", "test_system": "Mycosphaerella fijiensis", "assay": "Second field trials: in vitro fungicidal activity, length of germinated ascospores on water-agar", "assay_type": "cell-based", "details": "for % Inhibition: ascospores incubated 48 hours at 26° C. in darkness", "method": "Additional field trials were conducted to evaluate the in vitro fungicidal activity of 14 composition embodiments in the treatment of Mycosphaerella fijiensis.\nCulture media comprising 2% water-agar (Difco® Bacto® Agar) and 0.001, 0.01, 0.1, 1, 10, 100, and 1,000 mg/L of the active substance were each prepared in a petri dish for each composition. A separate culture media without any active substance was used as a control. For comparative fungicides F-11-01 to F-11-12 listed in Table 1 below, the active substance was the same as the composition as a whole.\nAscospores of Mycosphaerella fijiensis obtained from a banana plantation that had not been treated with any fungicides were discharged into each petri dish. After discharging the ascospores of Mycosphaerella fijiensis, each sample was incubated for 48 hours at 26° C. in complete darkness. After 48 hours of incubation, the length of 100 germinated ascospores at each concentration was measured.\nAfter collecting the data, the average length of the germinated ascospores was calculated for each concentration. The average inhibition percentage was calculated for each sample fungicide at each concentration using the following formula:\nwhere: • Lcontrol=average length of germinated ascospores of control sample • Lsample=average length of germinated ascospores of sample fungicide.\nThe average inhibition percentage was used to calculate EC50 for each sample fungicide. EC50 is the half maximal effective concentration, which refers to the concentration of sample fungicide that induces a response halfway between the baseline and maximum after a specified exposure time.", "data": [{"substance": "Polysorbate 80 [Fungicide F-11-09]", "values": [{"measurement": "% Inhibition", "setting": "0.001 mg/L", "value": 37.98, "unit": "%"}, {"measurement": "% Inhibition", "setting": "0.01 mg/L", "value": 42.6, "unit": "%"}, {"measurement": "% Inhibition", "setting": "0.1 mg/L", "value": 11.91, "unit": "%"}, {"measurement": "% Inhibition", "setting": "1 mg/L", "value": 31.87, "unit": "%"}, {"measurement": "% Inhibition", "setting": "10 mg/L", "value": 52.04, "unit": "%"}, {"measurement": "% Inhibition", "setting": "100 mg/L", "value": 46.24, "unit": "%"}, {"measurement": "Natural Log", "setting": "natural log belonging to the EC50 column", "value": 10.45}]}]}
